Here are results for 21 compounds from ChEMBL document CHEMBL1140493, “Quantitative structure-activity relationship studies for prediction of antimicrobial activity of synthesized 2,4-hexadienoic acid derivatives” (Bioorg Med Chem Lett, 2007).

In brackets after ≈: the same amount, converted by molar mass.

The subject of series [1] is Aspergillus niger. Put plainly: Antifungal activity against Aspergillus niger after 7 days by twofold serial dilution method. Type of series: functional. The note with it: 168 h, read-out: -Log MIC.
Series [2] is described as follows: Partition coefficient, log P of the compound. The note with it: octanol/water.
In series [3] the test system is Bacillus subtilis. Put plainly: Antimicrobial activity against Bacillus subtilis after 24 hrs by twofold serial dilution method. Format: functional. The note with it: read-out: -Log MIC.
For series [4], the system named is Candida albicans. Put plainly: Antifungal activity against Candida albicans after 2 days by twofold serial dilution method. Format: functional. The note with it: 48 h, read-out: -Log MIC.
The test system of series [5] is Staphylococcus aureus. Put plainly: Antimicrobial activity against Staphylococcus aureus after 24 hrs by twofold serial dilution method. Conditions: read-out: -Log MIC. Format: functional.
The subject of series [6] is Escherichia coli. Description: Antimicrobial activity against Escherichia coli after 24 hrs by twofold serial dilution method. Format: functional. Conditions: read-out: -Log MIC.

`C/C=C/C=C/C(=O)OC(C)CC` (stereo not given): the values for the minimal inhibitory concentration (MIC) in series [1], in series [3] and in series [4] were 83.2 µM (≈ 14 µg/mL), 74.1 µM (≈ 12.5 µg/mL) and 74.1 µM (≈ 12.5 µg/mL), respectively. In addition, the logP (as a rule, a log measure of how a compound divides between an organic and an aqueous phase) in series [2] was 2.72.

In the case of `O=C(O)c1cn(C2CC2)c2cc(N3CCNCC3)c(F)cc2c1=O` [CIPROFLOXACIN], the MIC in series [3], in series [5] and in series [6] was 0.468 µM (≈ 0.155 µg/mL) throughout.

For the compound `C/C=C/C=C/C(=O)NC`, the MIC (commonly the lowest concentration found to suppress growth) in series [1] came to 79.4 µM (≈ 9.94 µg/mL); in series [3], 79.4 µM (≈ 9.94 µg/mL); in series [5], 100 µM (≈ 12.5 µg/mL); in series [4], 79.4 µM (≈ 9.94 µg/mL). In series [2], this compound gave a logP of 0.85.

`C/C=C/C=C/C(=O)OCCCC`: the MIC amounted to 74.1 µM (≈ 12.5 µg/mL) in series [1], 74.1 µM (≈ 12.5 µg/mL) in series [3], 100 µM (≈ 16.8 µg/mL) in series [5] and 74.1 µM (≈ 12.5 µg/mL) in series [4]. The logP in series [2] came to 2.71.

For the compound `C/C=C/C=C/C(=O)Nc1ccc(OC)cc1`, the MIC in series [1] stood at 44.7 µM (≈ 9.71 µg/mL); in series [3], 45.7 µM (≈ 9.93 µg/mL); in series [5], 64.6 µM (≈ 14 µg/mL); in series [6], 64.6 µM (≈ 14 µg/mL); in series [4], 50.1 µM (≈ 10.9 µg/mL). Besides, the logP in series [2] was 2.28.

In the case of `C/C=C/C=C/C(=O)Nc1ccc(Cl)cc1`, the MIC was 50.1 µM (≈ 11.1 µg/mL) in series [1]; 44.7 µM (≈ 9.91 µg/mL) in series [3]; 63.1 µM (≈ 14 µg/mL) in series [5]; 72.4 µM (≈ 16.1 µg/mL) in series [6]; 50.1 µM (≈ 11.1 µg/mL) in series [4]. Moreover, the logP in series [2] came to 3.05.

As for `C/C=C/C=C/C(=O)Nc1ccccc1OC`, the MIC in series [1] is 63.1 µM (≈ 13.7 µg/mL); in series [3], 57.5 µM (≈ 12.5 µg/mL); in series [5] it was 63.1 µM (≈ 13.7 µg/mL); in series [6], 79.4 µM (≈ 17.3 µg/mL); in series [4], 50.1 µM (≈ 10.9 µg/mL). Also, the logP in series [2] amounted to 2.28.

Take `C/C=C/C=C/C(=O)Nc1ccccc1`: the MIC in series [1] was determined as 74.1 µM (≈ 13.9 µg/mL); in series [3] it was 66.1 µM (≈ 12.4 µg/mL); in series [4], 66.1 µM (≈ 12.4 µg/mL). The compound also had a logP in series [2] of 2.53.

Take `C/C=C/C=C/C(=O)Nc1ccccc1N`: the MIC in series [1] was 69.2 µM (≈ 14 µg/mL); in series [3], 49 µM (≈ 9.91 µg/mL); in series [5], 63.1 µM (≈ 12.8 µg/mL); in series [6], 69.2 µM (≈ 14 µg/mL); in series [4], 61.7 µM (≈ 12.5 µg/mL). The compound further had a logP in series [2] of 1.75.

In series [2], `C/C=C/C=C/C(=O)O` [SORBIC ACID] returned a logP of 1.47.

On to `C/C=C/C=C/C(=O)Oc1cccc2cccnc12`, for which the MIC in series [1] stood at 38 µM (≈ 9.09 µg/mL); in series [3], 12.9 µM (≈ 3.09 µg/mL); in series [5] it was 12.9 µM (≈ 3.09 µg/mL); in series [6] it was 12.9 µM (≈ 3.09 µg/mL); in series [4] it was 52.5 µM (≈ 12.6 µg/mL). Moreover, the logP in series [2] was found to be 3.27.

In the case of `C/C=C/C=C/C(=O)Oc1ccccc1`, the MIC in series [1] amounted to 47.9 µM (≈ 9.02 µg/mL); in series [3], 58.9 µM (≈ 11.1 µg/mL); in series [5], 95.5 µM (≈ 18 µg/mL); in series [6], 74.1 µM (≈ 13.9 µg/mL); in series [4] it was 56.2 µM (≈ 10.6 µg/mL). The same compound yielded a logP in series [2] of 3.18.

Turning to `C/C=C/C=C/C(=O)N(C)C`, the MIC in series [1] was 79.4 µM (≈ 11.1 µg/mL); in series [3], 72.4 µM (≈ 10.1 µg/mL); in series [5], 79.4 µM (≈ 11.1 µg/mL); in series [4], 63.1 µM (≈ 8.78 µg/mL). The logP in series [2] worked out at 1.1.

On to `C/C=C/C=C/C(=O)Nc1ccccc1Cl`, for which the MIC was determined as 63.1 µM (≈ 14 µg/mL) in series [1]; 56.2 µM (≈ 12.5 µg/mL) in series [3]; 70.8 µM (≈ 15.7 µg/mL) in series [5]; 81.3 µM (≈ 18 µg/mL) in series [6]; 56.2 µM (≈ 12.5 µg/mL) in series [4]. For the same compound, the logP in series [2] amounted to 3.05.

In turn, `C/C=C/C=C/C(=O)NCCO` had a logP in series [2] of 0.41. Moreover, the MIC turned out to be 91.2 µM (≈ 14.2 µg/mL) in series [3] and 81.3 µM (≈ 12.6 µg/mL) in series [4].

Regarding `C/C=C/C=C/C(=O)N1CCOCC1`, the MIC was 79.4 µM (≈ 14.4 µg/mL) in series [1], 55 µM (≈ 9.97 µg/mL) in series [3], 69.2 µM (≈ 12.5 µg/mL) in series [5] and 63.1 µM (≈ 11.4 µg/mL) in series [4]. In series [2], this compound showed a logP of 0.75.

On to `C/C=C/C=C/C(=O)Nc1cccc([N+](=O)[O-])c1`, for which the MIC in series [1] turned out to be 39.8 µM (≈ 9.24 µg/mL); in series [3], 34.7 µM (≈ 8.06 µg/mL); in series [5], 50.1 µM (≈ 11.6 µg/mL); in series [6], 60.3 µM (≈ 14 µg/mL); in series [4], 47.9 µM (≈ 11.1 µg/mL). Further, in series [2], the logP is 2.49.

As for `C/C=C/C=C/C(=O)Nc1cccc(C)c1`, the MIC in series [1] was determined as 61.7 µM (≈ 12.4 µg/mL); in series [3], 47.9 µM (≈ 9.64 µg/mL); in series [5], 61.7 µM (≈ 12.4 µg/mL); in series [6], 79.4 µM (≈ 16 µg/mL); in series [4], 61.7 µM (≈ 12.4 µg/mL). The compound further returned a logP in series [2] of 3.

As for `C/C=C/C=C/C(=O)OCCC(C)C`, the MIC in series [1] amounted to 69.2 µM (≈ 12.6 µg/mL); in series [3], 55 µM (≈ 10 µg/mL); in series [5], 63.1 µM (≈ 11.5 µg/mL); in series [6], 100 µM (≈ 18.2 µg/mL); in series [4] it was 69.2 µM (≈ 12.6 µg/mL). In series [2], this compound had a logP of 3.04.

`C/C=C/C=C/C(=O)N(c1ccccc1)c1ccccc1`: the MIC in series [1] turned out to be 39.8 µM (≈ 10.5 µg/mL); in series [3] it was 38 µM (≈ 10 µg/mL); in series [5], 50.1 µM (≈ 13.2 µg/mL); in series [6] it was 58.9 µM (≈ 15.5 µg/mL); in series [4], 47.9 µM (≈ 12.6 µg/mL). This compound gave a logP in series [2] of 4.46.

`C=CCOC(=O)/C=C/C=C/C`: the MIC in series [1] turned out to be 79.4 µM (≈ 12.1 µg/mL); in series [3], 79.4 µM (≈ 12.1 µg/mL); in series [4] it was 81.3 µM (≈ 12.4 µg/mL). For the same compound, in series [2], the logP is 2.24.
